For this experiment, the target named is PKM2 (Homo sapiens, UniProt P14618). In words: PKM2 Biochemical Assay. The settings on record: for Max. Resp.: % maximum response in a biochemical assay as compared with Fructose 1,6-bisphosphate.
Where [1] appears, read: read-out: PKM2 AC50, 2 nM PKM2, 75 μM ADP, 15 μM PEP, Kinase Glo.

This is an account of results in US10766865B2, “PKM2 modulators and methods for their use” (TOLERO PHARMACEUTICALS, INC., priority 2012, dated 2020).

One may read the AC50 as the midpoint of the concentration-response curve, whichever way the signal moves.

Where two headings read alike, the source gives them in different places.

Chain of PKM2 (P14618 whole entry): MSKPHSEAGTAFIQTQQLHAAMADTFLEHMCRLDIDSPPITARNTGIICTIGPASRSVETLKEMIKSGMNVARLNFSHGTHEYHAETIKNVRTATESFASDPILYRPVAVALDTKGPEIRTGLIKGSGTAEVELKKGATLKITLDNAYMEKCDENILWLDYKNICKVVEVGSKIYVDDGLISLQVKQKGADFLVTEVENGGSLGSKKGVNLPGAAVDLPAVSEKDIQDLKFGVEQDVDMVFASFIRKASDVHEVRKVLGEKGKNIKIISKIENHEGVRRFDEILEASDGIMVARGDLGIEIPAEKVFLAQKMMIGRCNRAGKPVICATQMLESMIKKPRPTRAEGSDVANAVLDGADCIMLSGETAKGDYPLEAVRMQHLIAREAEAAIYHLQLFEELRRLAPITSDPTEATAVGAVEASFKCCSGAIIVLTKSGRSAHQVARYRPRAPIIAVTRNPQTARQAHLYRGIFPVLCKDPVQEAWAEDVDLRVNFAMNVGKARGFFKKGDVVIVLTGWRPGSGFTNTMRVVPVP

Take `N#Cc1cc(C(=O)N(Cc2ccc(O)cc2F)CC2CCC2)[nH]n1` [Example 2, 3-CYANO-N-(CYCLOBUTYLMETHYL)-N-(2-FLUORO-4-HYDROXYBENZYL)-1H-PYRAZOLE-5-CARBOXAMIDE]: the “Max. Resp.” value amounted to 39%. The same measure, in the same setting: as for `Nc1cc(C(=O)N(Cc2ccc(O)cc2F)CC2CCC2)[nH]n1` [Example 3, 3-amino-N-(cyclobutylmethyl)-N-(2-fluoro-4-hydroxybenzyl)-1H-pyrazole-5-carboxamide], the figure is 45%. In the case of `CC(c1ccccc1)N(CC1CCC1)C(=O)c1cc(Br)n[nH]1` (stereo not drawn) [Example 4, 3-bromo-N-(cyclobutylmethyl)-N-(1-phenylethyl)-1H-pyrazole-5-carboxamide], half-maximal activity (AC50) was put at 1480 nM and the “Max. Resp.” value is reported as 52%. As for `CC(c1ccccc1)N(CC1CCC1)C(=O)c1cc(C(F)(F)F)n[nH]1` (stereo not drawn) [Example 5, 3-trifluoromethyl-N-(cyclobutylmethyl)-N-(1-phenylethyl)-1H-pyrazole-5-carboxamide], the “Max. Resp.” value came out at 106%. As for `O=C(c1cc(C(F)(F)F)n[nH]1)N(Cc1cccc2[nH]ccc12)CC1CCC1` [Example 6, N-((1H-indol-4-yl)methyl)-N-(cyclobutylmethyl)-3-(trifluoromethyl)-1H-pyrazole-5-carboxamide], the “Max. Resp.” value was 100%. For the same molecule, the AC50 under setting [1] is 213 nM.

On to `O=C(c1cc(Cl)n[nH]1)N(Cc1cccc2[nH]c(=O)sc12)CC1CCC1` [Example 9, 3-Chloro-N-(cyclobutylmethyl)-N-((2-oxo-2,3-dihydrobenzo[d]thiazol-7-yl)methyl)-1H-pyrazole-5-carboxamide], for which the “Max. Resp.” value worked out at 80%.

For the molecule `O=C(c1cc(Br)n[nH]1)N(Cc1cccc2[nH]c(=O)sc12)CC1CCC1` [Example 10, 3-bromo-N-(cyclobutylmethyl)-N-((2-oxo-2,3-dihydrobenzo[d]thiazol-7-yl)methyl)-1H-pyrazole-5-carboxamide], the “Max. Resp.” value was 127%. The same measure, in the same setting: as for `O=C(c1cc(Br)n[nH]1)N(Cc1ccc(O)cc1F)CC1CNC1` [Example 11, N-(azetidin-3-ylmethyl)-3-bromo-N-(2-fluoro-4-hydroxybenzyl)-1H-pyrazole-5-carboxamide], the figure is 61%. Still for that read-out and setting: as for `O=C(c1cc(C(F)(F)F)n[nH]1)N(Cc1cccc2[nH]ccc12)CC1COC1` [Example 12], the figure is 101%; as for `CC(C)(C)CN(Cc1cccc2[nH]ccc12)C(=O)c1cc(C(F)(F)F)n[nH]1` [Example 13], 33%.

Turning to `O=C(c1cc(C(F)(F)F)n[nH]1)N(Cc1cccc2c1CCN2)CC1CCC1` [Example 14, N-(cyclobutylmethyl)-N-(indolin-4-ylmethyl)-3-(trifluoromethyl)-1H-pyrazole-5-carboxamide], the “Max. Resp.” value was 81%. Moreover, under setting [1], the AC50 was 1700 nM. Consider `O=C(c1cc(C(F)(F)F)n[nH]1)N(Cc1ccc(O)cc1F)CC1COC1` [Example 15], for which the “Max. Resp.” value is listed as 102%. With `CCCC(C)N(Cc1ccccc1)C(=O)c1cc(C(F)(F)F)n[nH]1` (stereo not drawn) [Example 16], the “Max. Resp.” value worked out at 22%.

Regarding `CCCCCN(Cc1ccccc1)C(=O)c1cc(C(F)(F)F)n[nH]1` [Example 19], the “Max. Resp.” value stood at 76%. For the molecule `O=C(c1cc(C(F)(F)F)n[nH]1)N(Cc1ccccc1F)CC1COC1` [Example 20], the “Max. Resp.” value is given as 70%. Take `COCCCN(Cc1ccccc1F)C(=O)c1cc(C(F)(F)F)n[nH]1` [Example 23]: the “Max. Resp.” value stood at 75%. On the same count and under the same terms, as for `CCOCCN(Cc1ccc(O)cc1F)C(=O)c1cc(C(F)(F)F)n[nH]1` [Example 24], the figure is 100%. Still for that read-out and setting: the same measure for `O=C(c1cc(C(F)(F)F)n[nH]1)N(Cc1ccccc1F)c1ncco1` [Example 25]: 35%. On the same count and under the same terms, the same measure for `O=C(c1cc(C(F)(F)F)n[nH]1)N(CCC1CCOC1)Cc1ccccc1F` (stereo not drawn) [Example 26]: 99%. With `O=C(c1cc(C(F)(F)F)n[nH]1)N(Cc1ccccc1Cl)CC1COC1` [Example 27], the “Max. Resp.” value turned out to be 47%.

With `COCCCN(Cc1ccccc1Cl)C(=O)c1cc(C(F)(F)F)n[nH]1` [Example 29], the activity was half-maximal at 4640 nM (AC50) and the “Max. Resp.” value was 87%. For `COCCCN(Cc1ccccc1F)C(=O)c1cc(C(F)(F)F)n[nH]1` [Example 30], in that order: 9770 nM and 72%.

On to `COCCCN(Cc1ccccc1Cl)C(=O)c1cc(C(F)(F)F)n[nH]1` [Example 31], for which the “Max. Resp.” value came to 82%. On the same count and under the same terms, as for `O=C(c1cc(C(F)(F)F)n[nH]1)N(CCC1CCOCC1)Cc1ccccc1Cl` [Example 32], the figure is 107%; as for `O=C(c1cc(C(F)(F)F)n[nH]1)N(CCC1CCOC1)Cc1c(Cl)cccc1Cl` (stereo not drawn) [Example 33], 81%; as for `O=C(c1cc(C(F)(F)F)n[nH]1)N(CCC1CCOC1)Cc1ccc(O)cc1F` (stereo not drawn) [Example 34], 109%.

As for `O=C(c1cc(C(F)(F)F)n[nH]1)N(Cc1ccccc1Cl)C1CCOCC1` [Example 35], the “Max. Resp.” value is 59%. On the same count and under the same terms, the same measure for `O=C(c1cc(C(F)(F)F)n[nH]1)N(CCC1CCCOC1)Cc1ccccc1Cl` (stereo not drawn) [Example 36]: 88%; for `CC(C)OCCN(Cc1ccccc1Cl)C(=O)c1cc(C(F)(F)F)n[nH]1` [Example 37]: 37%. Same read-out and setting: as for `CCOCCCN(Cc1ccccc1Cl)C(=O)c1cc(C(F)(F)F)n[nH]1` [Example 38], the figure is 47%; as for `O=C(c1cc(C(F)(F)F)n[nH]1)N(CCOC1CCCC1)Cc1ccccc1F` [Example 39], 30%. Still for that read-out and setting: the same measure for `O=C(c1cc(C(F)(F)F)n[nH]1)N(CCC1CCOC1)Cc1c(F)cccc1F` (stereo not drawn) [Example 40]: 114%; for `O=C(c1cc(C(F)(F)F)n[nH]1)N(CCC1CCOCC1)Cc1ccccc1F` [Example 41]: 118%; for `CCOCCN(Cc1c(Cl)cccc1Cl)C(=O)c1cc(C(F)(F)F)n[nH]1` [Example 42]: 76%. `O=C(c1cc(C(F)(F)F)n[nH]1)N(CCC1CCOC1)Cc1ccccc1Cl` (stereo not drawn) [Example 43]: the “Max. Resp.” value worked out at 110%. Same read-out and setting: the same measure for `O=C(c1cc(C(F)(F)F)n[nH]1)N(CCC1CCCCO1)Cc1ccccc1Cl` (stereo not drawn) [Example 44]: 32%; for `O=C(c1cc(C(F)(F)F)n[nH]1)N(Cc1ccccc1F)CC1CCOCC1` [Example 45]: 52%; for `O=C(c1cc(C(F)(F)F)n[nH]1)N(CCC1CCCO1)Cc1ccccc1F` (stereo not drawn) [Example 46]: 70%.

Consider `CO[C@H]1CC[C@H](N(Cc2cccc(F)c2)C(=O)c2cc(C(F)(F)F)n[nH]2)CC1` [Example 48], for which the “Max. Resp.” value came out at 80%.

As to `CO[C@H]1CC[C@H](N(Cc2c(F)cccc2F)C(=O)c2cc(C(F)(F)F)n[nH]2)CC1` [Example 49], the “Max. Resp.” value was found to be 122%. The same measure, in the same setting: the same measure for `CO[C@H]1CC[C@H](N(Cc2cc(F)ccc2F)C(=O)c2cc(C(F)(F)F)n[nH]2)CC1` [Example 50]: 90%; for `CO[C@H]1CC[C@H](N(Cc2cc(F)cc(F)c2)C(=O)c2cc(C(F)(F)F)n[nH]2)CC1` [Example 51]: 31%; for `CO[C@H]1CC[C@H](N(Cc2ccccc2Cl)C(=O)c2cc(C(F)(F)F)n[nH]2)CC1` [Example 52]: 100%.

For `CC(C)O[C@H]1CC[C@H](N(Cc2ccccc2Cl)C(=O)c2cc(C(F)(F)F)n[nH]2)CC1` [Example 53], the “Max. Resp.” value is on record as 63%.

`CCO[C@H]1CC[C@H](N(Cc2ccccc2F)C(=O)c2cc(C(F)(F)F)n[nH]2)CC1` [Example 55]: the “Max. Resp.” value came to 101%. Still for that read-out and setting: the same measure for `CO[C@H]1CC[C@H](N(Cc2ncccc2Cl)C(=O)c2cc(C(F)(F)F)n[nH]2)CC1` [Example 56]: 48%. As for `O=C(c1cc(C(F)(F)F)n[nH]1)N(CCC1CCC2(CC1)OCCO2)Cc1ccccc1F` [Example 59, N-(2-(1,4-dioxaspiro[4.5]decan-8-yl)ethyl)-N-(2-fluorobenzyl)-3-(trifluoromethyl)-1H-pyrazole-5-carboxamide], the “Max. Resp.” value stood at 100%. The same measure, in the same setting: the same measure for `O=C1CCC(CCN(Cc2ccccc2F)C(=O)c2cc(C(F)(F)F)n[nH]2)CC1` [Example 60, N-(2-fluorobenzyl)-N-(2-(4-oxocyclohexyl)ethyl)-3-(trifluoromethyl)-1H-pyrazole-5-carboxamide]: 105%; for `O=C(c1cc(C(F)(F)F)n[nH]1)N(CCC1CCS(=O)(=O)C1)Cc1ccccc1F` (stereo not drawn) [Example 63]: 87%; for `O=C(c1cc(C(F)(F)F)n[nH]1)N(CCC1CCS(=O)(=O)C1)Cc1c(Cl)cccc1Cl` (stereo not drawn) [Example 64]: 71%.

With `O=C(c1cc(C(F)(F)F)n[nH]1)N(CCC1CCS(=O)(=O)C1)Cc1c(F)cccc1F` (stereo not drawn) [Example 66], the “Max. Resp.” value amounted to 102%.

Turning to `O=C(c1cc(C(F)(F)F)n[nH]1)N(CCC1CCS(=O)(=O)C1)Cc1cccc(F)c1` (stereo not drawn) [Example 67], the “Max. Resp.” value turned out to be 95%.

`O=C(c1cc(C(F)(F)F)n[nH]1)N(CCC1CCS(=O)(=O)C1)Cc1cccc(F)c1F` (stereo not drawn) [Example 68]: the “Max. Resp.” value turned out to be 103%.

For `O=C(c1cc(C(F)(F)F)n[nH]1)N(CCC1CCS(=O)(=O)C1)Cc1cc(F)cc(F)c1` (stereo not drawn) [Example 69], the “Max. Resp.” value turned out to be 74%.

Take `O=C(c1cc(C(F)(F)F)n[nH]1)N(CCC1CCS(=O)(=O)C1)Cc1cc(F)ccc1F` (stereo not drawn) [Example 70]: the “Max. Resp.” value worked out at 91%.

In the case of `O=C(c1cc(C(F)(F)F)n[nH]1)N(Cc1ccccc1F)CC1CCS(=O)(=O)CC1` [Example 71], the “Max. Resp.” value was determined as 71%. Turning to `O=C(c1cc(C(F)(F)F)n[nH]1)N(Cc1ccccc1Cl)CC1CCS(=O)(=O)CC1` [Example 72], the “Max. Resp.” value was 22%. As for `O=C(c1cc(C(F)(F)F)n[nH]1)N(CCC1CCSCC1)Cc1ccccc1Cl` [Example 73, N-(2-chlorobenzyl)-N-(2-(tetrahydro-2H-thiopyran-4-yl)ethyl)-3-(trifluoromethyl)-1H-pyrazole-5-carboxamide], the “Max. Resp.” value was 79%.
